Experimental data taken from US7101844B2, “Cytoplasmic transduction peptides and uses thereof” (Creagene, Inc., priority 2002, dated 2006).
“Also recorded” adds a separate entry of the source.

Legend:
[1] = test system: HeLa, L929, RENCA, Jurkat cell lines and splenocytes; assay: Transduction potential of CTP in various cell types; type: cell-based, human, mouse; conditions: FITC-labeled peptide
Protocol: The examples described above analyzed the transduction potential solely by the use of HeLa cells. In this Example, the transduction potential of CTP was evaluated with other cell types including mouse cell lines (mouse fibroblast L929 and mouse renal cancer cell line RENCA), human lymphoid T cell line (Jurkat cells) and primary mouse splenocytes.

HeLa cells [2] = assay: Quantitative analysis of the membrane permeability of CTP-β-gal (β-gal activity of lysates of trypsinized cells); type: cell-based; conditions: incubation for 20 hr
Protocol: For the quantitatation of the permeability of each CPP-fusion protein, HeLa cells were treated with PTD, MTS and CTP508, 509, 511, 512, 513 and 514, CPP-β-gal fusion proteins for 20 hr as described above, and the cells were trypsinized, followed by measuring the amounts of fusion protein imported into cells. Trypsin-treated cells were washed twice with 10% FBS-containing DMEM (high glucose) to inactivate any residual trypsin activity, and then washed once with 1× PBS. The cells collected by centrifugation were resuspended in a 0.9% Triton-X 100 solution, incubated for 10 min at room temperature to lyse cells, and then the supernatant of each lysate was obtained by centrifugation at 12000 rpm for 2 min. The β-gal activity of each sample was measured at 570 nm using enhanced β-gal assay kit (GTS Inc, USA) and an ELISA reader.

HeLa cells [3] = assay: Transduction of PTD- and CTP-β-galactosidase into HeLa cells (X-gal staining after fixation); type: cell-based; conditions: 100 μg/ml, 1 hr; for transduction potential: β-galactosidase fusion protein, HeLa cells, fixation
Text: Although various other substitutions could be performed, it is essential in this invention that the introduction of a positive charge by arginine and the substitution by an α-helix stabilizing amino acid should be carried out for maintaining the principle function of the PTD peptide. Therefore, as a substitute amino acid, the positively charged amino acid is restricted to arginine, and the negatively charged amino acid is restricted to glutamic acid. β-galactosidase was fused to the CTP candidate peptide, the fusion proteins were isolated and purified (see FIG. 2), and HeLa cells were treated with each of the fusion proteins. This was then followed by an analysis of the transduction potential and a determination of the extent of the cytoplasmic remaining property.
The transduction potential of the PTD and CTP candidates was tested with HeLa cells. Using a 24-well plate (Nunc), 5×10^4 HeLa cells were inoculated into high glucose DMEM (containing 10% FBS) and cultured for 36 hr. The cells were rinsed with PBS and treated with 100 μg/ml of PTD- and CTP-β-galactosidase in an opti-MEM I medium. After 1-hr incubation, cells were fixed for 10 min at room temperature with a fixation solution (2% formaldehyde, 0.2% glutaraldehyde in PBS). Then, the cells were rinsed twice with PBS, and stained for 2 hr with dye (0.1% X-gal, 5 mM potassium ferricyanide, 5 mM potassium ferrocyanide, 2 mM MgCl2 in PBS) to examine their transduction potential (see FIG. 3). The samples showing a low level of staining, even after a 2-hr staining, were incubated overnight, and then stained for the relative transduction potential. The transduction potentials of the PTD and CTP candidates into HeLa cells were seen to be in the following order: PTD5<CTP502<<CTP501=CTP506<CTP507<CTP505<CTP503=CTP504<CTP508=CTP510=MTS<CTP509<<PTD=CTP511<<CTP512.

HeLa cells [4] = assay: Transduction potential of FITC-labeled peptides by FACS; type: cell-based; conditions: FITC-labeled peptide
Text: It has been shown by trypsin treatment that the transduction potential of the peptides known so far is distorted presumably due to the influence of cell fixation (46). Therefore, to verify that the CTP-β-gal of this invention has genuine transduction potential, trypsinization steps were included in the experiments as described above. At this time, since the activity of CTP per se may be affected by its fusion partner β-gal, CTP labeled with fluorescent molecule instead of β-gal was examined for its transduction capacity into cells. HeLa cells were treated with CTP-FITC and then trypsinized prior to harvest. The amounts of the peptides transduced into the cells were measured by FACS (Fluorescence-activated cell sorter) analysis with FACSCalibur (Becton Dickison, USA).
HeLa cells were inoculated into 12-well plates at a density of 2×10^5/ml and cultured for 1 day at 37° C. […] The cells were washed twice and the fluorescent intensity of each sample was measured by FACS.
In order to examine the transduction potential of peptides at different concentrations, cells were treated for 2 hr with peptides with increasing concentrations of peptides, and then trypsinized before examination. The fluorescent intensity in the cells was measured by FACS.

HeLa cells [5] = assay: Subcellular localization of CTP-FITC by confocal microscope without cell fixation; type: cell-based; conditions: FITC-labeled peptide, 25 μg/ml, 1 hr
Text: Fixation step is inevitable for examining the subcellular localization of the transduced β-gal in the cells with antibodies. However, according to the previous reports, the fusion protein attached to cell surface is very likely to be introduced into the cell during a cell fixation procedure, which may affect its transduction potential and its subcellular localization. However, FITC-labeled membrane permeation peptides allow its subcellular localization to be observed under a confocal microscope without cell fixation. Monolayered HeLa cells were treated for 1 hr with FITC-labeled CTP, PTD or MTS at a concentration of 25 μg/ml, and washed three times with HBSS, followed by observation under a confocal microscope without cell fixation.

HeLa cells [6] = assay: Transduction potential of CTP-β-gal following treatment with trypsin (staining); type: cell-based; conditions: 50 μg/ml, 20 hr, trypsin before fixation
Protocol: HeLa cells were cultured for 1 day in DMEM (high glucose) at a density of 2×10^5/ml in 48-well plates. Cells were washed once with 1× PBS, and then incubated further for additional 20 hr in OPTI-MEM containing PTD-β-gal, MTS-β-gal, CTP501-β-gal or CTP514-β-gal, respectively, at a concentration of 50 μg/ml. Thereafter, the cells were treated with trypsin-EDTA (10×) for 3 min at 37° C. to remove the CPP-β-gal attached to the cell surface, and then rinsed twice with 1× PBS, followed by fixing with a fixation solution for 10 min at room temperature. After washing twice with 1× PBS, the cells were stained with a staining solution for 2 hr at 37° C. and photographed under a microscope (FIG. 6b).

In the case of “CTP512: CTP (2G4R8R9R), sequence YGRRARRRRRR; representative CTP used from Example 5-4 on”, the “transduction potential in various cell types” value [1] is reported as “highest transduction potential”, the “transduction into HeLa cells” value (HeLa cells [2]) is reported as “much higher transduction potential than either the PTD or the MTS” and the transduction potential (HeLa cells [3]) is reported as “higher transduction potential than the wild type PTD; also recorded: significantly high transduction potential”. The transduction potential (HeLa cells [3]; listed as CTP 512) was “transduction potential higher than wild type PTD”, the “order of transduction potentials into HeLa cells” value (HeLa cells [3]; β-galactosidase fusion, X-gal staining) was “CTP511<<CTP512” and the “transduction potential at the same concentrations” value (HeLa cells [4]; 2 hr, trypsinized) was “significantly higher transduction potential than either PTD or MTS”. The “transduction potential over time” value (HeLa cells [4]; trypsinized cells, FACS) was “higher transduction potential than the PTD in all period of time”, the “order of transduction potential” value (HeLa cells [5]) was “CTP512>513” and the subcellular localization (HeLa cells [5]) was “observed only in the cytoplasm, and not in the nucleus”. For the same substance, the “β-gal activity transduced into cells” value (HeLa cells [6]) was “much more efficient to transduce β-gal into cells than either PTD or MTS”.
